Data: ChEMBL document CHEMBL3885881, “DrugMatrix”

Species on record: Rattus norvegicus
Assay: DrugMatrix - Regimen: Daily Repeat
Format: toxicity, organism-based, Sprague-Dawley
Design: regimen Daily Repeat, gender Male, age 6-8 weeks
Conditions: in vivo, po, route oral GAVAGE, […]; for ABSOLUTE BASOPHIL / ABSOLUTE EOSINOPHIL / ABSOLUTE LYMPHOCYTE / ABSOLUTE MONOCYTE / ABSOLUTE SEGMENTED NEUTROPHIL / BASOPHIL / EOSINOPHIL / ERYTHROCYTE COUNT / HEMATOCRIT / HEMOGLOBIN / LEUKOCYTE COUNT / LYMPHOCYTE / MEAN CORPUSCULAR HEMOGLOBIN / MEAN CORPUSCULAR HEMOGLOBIN CONCENTRATION / MEAN CORPUSCULAR VOLUME / MONOCYTE / NEUTROPHIL / NUCLEATED RED BLOOD CELLS / PLATELET COUNT: tissue Blood; for ALANINE AMINOTRANSFERASE / ALBUMIN / ALKALINE PHOSPHATASE / ASPARTATE AMINOTRANSFERASE / BLOOD UREA NITROGEN / CARBON DIOXIDE / CHLORIDE / CHOLESTEROL / CREATINE PHOSPHOKINASE / CREATININE / GLUCOSE / LACTATE DEHYDROGENASE / LIPASE / PHOSPHORUS / POTASSIUM / SODIUM / TOTAL BILIRUBIN / TOTAL PROTEIN / URIC ACID: tissue Plasma
[1] = 0 mg/kg, 72 h, dose level Control, time 3 day
[2] = 0 mg/kg, 120 h, dose level Control, time 5 day
[3] = 0 mg/kg, dose level Control, time 28 day
[4] = 20 mg/kg, 72 h, dose level Low, time 3 day

`CCCCCCCCCc1ccc(O)cc1` [4-NONYLPHENOL] was tested, and the “ABSOLUTE BASOPHIL” value [1] was 0 CELLS/uL, the “ABSOLUTE EOSINOPHIL” value [1] was 0 CELLS/uL and the “ABSOLUTE LYMPHOCYTE” value [1] was 11091.17 CELLS/uL. The “ABSOLUTE MONOCYTE” value [1] was 172.17 CELLS/uL, the “ABSOLUTE SEGMENTED NEUTROPHIL” value [1] was 1186.67 CELLS/uL and the BASOPHIL [1] was 0%. The EOSINOPHIL [1] was 0%, the “ERYTHROCYTE COUNT” value [1] was 5.87 x10E6/uL and the HEMATOCRIT [1] was 36.87%. For the same molecule, the HEMOGLOBIN [1] was 14.03 G/DL, the “LEUKOCYTE COUNT” value [1] was 12.45 x10E3/uL and the LYMPHOCYTE [1] was 88.67%. The “MEAN CORPUSCULAR HEMOGLOBIN” value [1] was 23.93 pg, the “MEAN CORPUSCULAR HEMOGLOBIN CONCENTRATION” value [1] was 38.1 G/DL and the “MEAN CORPUSCULAR VOLUME” value [1] was 62.73 fL. For the same molecule, the MONOCYTE [1] was 1.5%, the NEUTROPHIL [1] was 9.83% and the “NUCLEATED RED BLOOD CELLS” value [1] was 0 /100WBC. For the same molecule, the “PLATELET COUNT” value [1] was 1150.33 x10E3/uL, the “ALANINE AMINOTRANSFERASE” value [1] was 67.17 u/L and the ALBUMIN [1] was 4.03 G/DL. For the same molecule, the “ALKALINE PHOSPHATASE” value [1] was 462.5 u/L, the “ASPARTATE AMINOTRANSFERASE” value [1] was 88 u/L and the “BLOOD UREA NITROGEN” value [1] was 13.17 mg/dL. For the same molecule, the “CARBON DIOXIDE” value [1] was 29.33 mmol/L, the CHLORIDE [1] was 101 MEQ/L and the CHOLESTEROL [1] was 69.17 mg/dL. For the same molecule, the “CREATINE PHOSPHOKINASE” value [1] was 292.5 u/L, the CREATININE [1] was 0.17 mg/dL and the GLUCOSE [1] was 167.5 mg/dL. For the same molecule, the “LACTATE DEHYDROGENASE” value [1] was 198.5 u/L, the LIPASE [1] was 10.67 u/L and the PHOSPHORUS [1] was 11.73 mg/dL. The POTASSIUM [1] was 5.91 MEQ/L, the SODIUM [1] was 143.3 MEQ/L and the “TOTAL BILIRUBIN” value [1] was 0.18 mg/dL. For the same molecule, the “TOTAL PROTEIN” value [1] was 5.7 G/DL, the “URIC ACID” value [1] was 1.3 mg/dL and the “ABSOLUTE BASOPHIL” value [2] was 0 CELLS/uL. For the same molecule, the “ABSOLUTE EOSINOPHIL” value [2] was 64.33 CELLS/uL, the “ABSOLUTE LYMPHOCYTE” value [2] was 12494.67 CELLS/uL and the “ABSOLUTE MONOCYTE” value [2] was 117 CELLS/uL. For the same molecule, the “ABSOLUTE SEGMENTED NEUTROPHIL” value [2] was 1340.67 CELLS/uL, the “NUCLEATED RED BLOOD CELLS” value [2] was 0 /100WBC and the “CARBON DIOXIDE” value [2] was 29.17 mmol/L. For the same molecule, the “LACTATE DEHYDROGENASE” value [2] was 229.17 u/L, the LIPASE [2] was 10.83 u/L and the “URIC ACID” value [2] was 1.55 mg/dL. For the same molecule, the BASOPHIL [3] was 0.42%, the EOSINOPHIL [3] was 0.58% and the “ERYTHROCYTE COUNT” value [3] was 8.06 x10E6/uL. The HEMATOCRIT [3] was 48.44%, the HEMOGLOBIN [3] was 16.34 G/DL and the “LEUKOCYTE COUNT” value [3] was 13.04 x10E3/uL. The LYMPHOCYTE [3] was 85.12%, the “MEAN CORPUSCULAR HEMOGLOBIN” value [3] was 20.26 pg and the “MEAN CORPUSCULAR HEMOGLOBIN CONCENTRATION” value [3] was 33.74 G/DL. The “MEAN CORPUSCULAR VOLUME” value [3] was 60.1 fL, the MONOCYTE [3] was 1.44% and the NEUTROPHIL [3] was 11.28%. For the same molecule, the “PLATELET COUNT” value [3] was 1226 x10E3/uL, the “ALANINE AMINOTRANSFERASE” value [3] was 28.6 u/L and the ALBUMIN [3] was 3.94 G/DL. For the same molecule, the “ALKALINE PHOSPHATASE” value [3] was 254.6 u/L, the “ASPARTATE AMINOTRANSFERASE” value [3] was 67.8 u/L and the “BLOOD UREA NITROGEN” value [3] was 10.4 mg/dL. The CHLORIDE [3] was 104.6 MEQ/L, the CHOLESTEROL [3] was 57.6 mg/dL and the “CREATINE PHOSPHOKINASE” value [3] was 224.8 u/L. For the same molecule, the CREATININE [3] was 0.4 mg/dL, the GLUCOSE [3] was 140.6 mg/dL and the PHOSPHORUS [3] was 10.66 mg/dL. For the same molecule, the POTASSIUM [3] was 6.58 MEQ/L, the SODIUM [3] was 148.6 MEQ/L and the “TOTAL BILIRUBIN” value [3] was 0.24 mg/dL. For the same molecule, the “TOTAL PROTEIN” value [3] was 6.64 G/DL, the “ABSOLUTE BASOPHIL” value [4] was 0 CELLS/uL and the “ABSOLUTE EOSINOPHIL” value [4] was 45.67 CELLS/uL. For the same molecule, the “ABSOLUTE LYMPHOCYTE” value [4] was 11853.67 CELLS/uL, the “ABSOLUTE MONOCYTE” value [4] was 45.67 CELLS/uL and the “ABSOLUTE SEGMENTED NEUTROPHIL” value [4] was 988.33 CELLS/uL. For the same molecule, the BASOPHIL [4] was 0%, the EOSINOPHIL [4] was 0.33% and the “ERYTHROCYTE COUNT” value [4] was 5.99 x10E6/uL. The HEMATOCRIT [4] was 37.03%, the HEMOGLOBIN [4] was 14.3 G/DL and the “LEUKOCYTE COUNT” value [4] was 12.93 x10E3/uL. The LYMPHOCYTE [4] was 91.67%, the “MEAN CORPUSCULAR HEMOGLOBIN” value [4] was 23.9 pg and the “MEAN CORPUSCULAR HEMOGLOBIN CONCENTRATION” value [4] was 38.6 G/DL. The “MEAN CORPUSCULAR VOLUME” value [4] was 61.9 fL, the MONOCYTE [4] was 0.33% and the NEUTROPHIL [4] was 7.67%. The “NUCLEATED RED BLOOD CELLS” value [4] was 0 /100WBC, the “PLATELET COUNT” value [4] was 1126 x10E3/uL and the “ALANINE AMINOTRANSFERASE” value [4] was 75.33 u/L. The ALBUMIN [4] was 3.8 G/DL, the “ALKALINE PHOSPHATASE” value [4] was 451.33 u/L and the “ASPARTATE AMINOTRANSFERASE” value [4] was 100 u/L. The “BLOOD UREA NITROGEN” value [4] was 13 mg/dL, the “CARBON DIOXIDE” value [4] was 24.67 mmol/L and the CHLORIDE [4] was 102.67 MEQ/L. For the same molecule, the CHOLESTEROL [4] was 62.67 mg/dL, the “CREATINE PHOSPHOKINASE” value [4] was 371 u/L and the CREATININE [4] was 0.19 mg/dL. For the same molecule, the GLUCOSE [4] was 168.67 mg/dL, the “LACTATE DEHYDROGENASE” value [4] was 255.33 u/L and the LIPASE [4] was 9.67 u/L. For the same molecule, the PHOSPHORUS [4] was 11.97 mg/dL, the POTASSIUM [4] was 5.3 MEQ/L and the SODIUM [4] was 143.8 MEQ/L. The “TOTAL BILIRUBIN” value [4] was 0.2 mg/dL, the “TOTAL PROTEIN” value [4] was 5.33 G/DL and the “URIC ACID” value [4] was 1.77 mg/dL.
